Test results from patent publication US20040266732A1, “Therapeutic agents, methods, and treatments” (priority 2002, published 2004).

Experiments:
Assay in all cases: NCI 60 cell-line test
Assay type in all cases: cell-based, human
U251 = U251 (CNS Cancer)
How it was run: (§1)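 Plating densities of 5,000 to 40,000 cells/well depended on doubling time; drug was added after 24 h preincubation. Plates were incubated 48 h more, fixed with cold TCA (suspension cells with 80% TCA), stained with 0.4% SRB and read at 515 nm.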

A549/ATCC = A549/ATCC (Non-Small Cell Lung Cancer)
How it was run: as §1

SK-MEL-2 = SK-MEL-2 (Melanoma)
How it was run: as §1

HCT-116 = HCT-116 (Colon Cancer)
How it was run: as §1

MDA-MB-435 = MDA-MB-435 (Breast Cancer)
How it was run: as §1

SW-620 = SW-620 (Colon Cancer)
How it was run: as §1

SF-268 = SF-268 (CNS Cancer)
How it was run: as §1

SK-OV-3 = SK-OV-3 (Ovarian Cancer)
How it was run: as §1

SF-539 = SF-539 (CNS Cancer)
How it was run: as §1

HS 578T = HS 578T (Breast Cancer)
How it was run: as §1

EKVX = EKVX (Non-Small Cell Lung Cancer)
How it was run: as §1

UACC-62 = UACC-62 (Melanoma)
How it was run: as §1

MCF7 = MCF7 (Breast Cancer)
How it was run: as §1

OVCAR-8 = OVCAR-8 (Ovarian Cancer)
How it was run: as §1

[1] = read-out: LC50 (the source's name)

`CC1(C)C2CC[C@@]1(CS(=O)(=O)N(C1CCCCC1)C1CCCCC1)C(O)C2` (stereo partly drawn) [MT103] gave a TGI (U251) greater than 1.00E−04, an IC50 (U251; read-out: G150) of 28.7 µM and a CC50 (U251; [1]) greater than 100 µM. For the same molecule, the TGI (A549/ATCC) was greater than 1.00E−04, the IC50 (A549/ATCC; read-out: G150) was 28.3 µM and the CC50 (A549/ATCC; [1]) was greater than 100 µM. The TGI (SK-MEL-2) was 6.77E−05, the IC50 (SK-MEL-2; read-out: G150) was 26 µM and the CC50 (SK-MEL-2; [1]) was greater than 100 µM. For the same molecule, the TGI (HCT-116) was greater than 1.00E−04, the IC50 (HCT-116; read-out: G150) was 43.8 µM and the CC50 (HCT-116; [1]) was greater than 100 µM. The TGI (MDA-MB-435) was 9.88E−05, the IC50 (MDA-MB-435; read-out: G150) was 28.4 µM and the CC50 (MDA-MB-435; [1]) was greater than 100 µM. The TGI (SW-620) was greater than 1.00E−04, the IC50 (SW-620; read-out: G150) was 28.8 µM and the CC50 (SW-620; [1]) was greater than 100 µM. For the same molecule, the TGI (SF-268) was greater than 1.00E−04, the IC50 (SF-268; read-out: G150) was 35.8 µM and the CC50 (SF-268; [1]) was greater than 100 µM. It also gave a TGI (SK-OV-3) greater than 1.00E−04, an IC50 (SK-OV-3; read-out: G150) of 83.2 µM and a CC50 (SK-OV-3; [1]) greater than 100 µM. For the same molecule, the TGI (SF-539) was greater than 1.00E−04, the IC50 (SF-539; read-out: G150) was 54.6 µM and the CC50 (SF-539; [1]) was greater than 100 µM. It also gave a TGI (HS 578T) greater than 1.00E−04, an IC50 (HS 578T; read-out: G150) of 29 µM and a CC50 (HS 578T; [1]) greater than 100 µM. The TGI (EKVX) was 9.83E−05, the IC50 (EKVX; read-out: G150) was 31.3 µM and the CC50 (EKVX; [1]) was greater than 100 µM. It also gave a TGI (UACC-62) of 4.65E−05, an IC50 (UACC-62; read-out: G150) of 18.8 µM and a CC50 (UACC-62; [1]) greater than 100 µM. The TGI (MCF7) was 9.05E−05, the IC50 (MCF7; read-out: G150) was 20.6 µM and the CC50 (MCF7; [1]) was greater than 100 µM. For the same molecule, the TGI (OVCAR-8) was greater than 1.00E−04, the IC50 (OVCAR-8; read-out: G150) was 25.3 µM and the CC50 (OVCAR-8; [1]) was greater than 100 µM.
